Measurements reported in US20080103205A1, “Pesticidal compositions and methods of use” (priority 2006, published 2008).
“And” between values parts separate entries of the source, which are not always exact repeats. Identical values can stand only once. Like-named read-outs stand apart in the source and are kept apart here.

How the values were obtained:
[1] = tested on: European corn borer (Ostrinia nubilalis); assay: Diet surface test on European corn borer larvae (2nd instar); type: in vivo; conditions: for mortality at 6.25 ppm / mortality at 12.5 ppm / mortality at 25 ppm / mortality at 50 ppm: Ostrinia nubilalis, read-out: % Mortality
Description: Concentrations of 6.25, 12.5, 25, or 50 ppm AT blocker were prepared in 95% ethyl alcohol (EtOH). 95% EtOH alone served as control. European corn borer (ECB) diet prepared from the powdered diet supplied by French Agricultural Research, Inc. Diet (1-2 ml) was poured into small cups and allowed to cool to room temperature. Test solution (100 ul) was placed onto the diet surface and allowed to evaporate the solvent. Each concentration of chemical had 2 sets of 10 cups each. One late 2nd instar larva was placed in each cup and covered with lid having perforations for aeration. Cups were placed in an incubator for 7 days at 25±1° C. and 70±5% RH. After seven days, the weight of each larva was taken and any mortality was recorded. Then, the surviving larvae were transferred to fresh diet cups holding sufficient diet (5-6 ml) without chemicals and incubated at 25±1° C. and 70±5% RH until pupation. Weights of larvae were taken 14 days after transferring to fresh diet (21 days after start of treatment). Finally, the number of days until pupation was recorded.
Anion transporters caused larval death and a reduction in weight gain within 7 days exposure. The effect persisted for 2 weeks time on untreated diet, but total time to pupation was relatively unaffected.

[2] = tested on: Meloidogyne incognita eggs; assay: M. incognita egg hatching; type: in vivo
Description: Meloidogyne incognita (plant parasitic nematode) eggs were collected from tomato plant roots and were suspended in water. The solution was either diluted or concentrated to adjust the egg load to about 5000/ml. AT stock solutions prepared in DMSO and 300 ul of test solution was placed in a well, along with 20 ul of aqueous solution containing eggs. The number of eggs in 20 ul solution ranged from 115 to 143 (n=10). Each treatment (2, 5, 10, 20, or 40 ppm) was replicated 5 times. Microplates were sealed with Parafilm™ and incubated at room temperature. Similar tests conducted with 0.2% DMSO alone served as controls. Egg hatching was monitored at 24, 72, 120, and 168 hr after incubation. Both moving and non-moving nematodes were counted to arrive at the number of eggs hatched. Proportion of egg hatch was calculated as the number of juveniles divided by total number of eggs.
VSCC blockers effect on M. incognita egg hatching is shown in the following tables where % hatched is rounded to the nearest percentage point and where “% C*” is % hatch, normalized to control.

[3] = 6.25 ppm, 21 days after feeding
[4] = 12.5 ppm, 21 days after feeding
[5] = 50 ppm, 7 days after feeding, 10 larvae treated
[6] = 50 ppm, 21 days after feeding, 10 larvae treated

O=S(=O)(O)c1cc(N=C=S)ccc1/C=C/c1ccc(N=C=S)cc1S(=O)(=O)O [DIDS, trans-4,4′-diisothiocyanatostilbene-2,2′-disulfonic acid, reference compound]
Days for pupation ([1]; 6.25 ppm): 24.6 days and 25.0 days | % wt reduction to control ([1]; 6.25 ppm, 7 days after feeding): 12.76% and 9.12% | Mean wt of survived larvae, mg ([1]; 6.25 ppm, 7 days after feeding): 41.56 (10) mg and 44.84 (10) mg | No. dead ([1]; 6.25 ppm, 7 days after feeding, 10 larvae): 0 | % wt reduction to control [1, 3]: 5.69% and 7.74% | Mean wt of survived larvae, mg [1, 3]: 156.66 (10) mg and 135.14 (10) mg | No. dead ([1]; 6.25 ppm, 21 days after feeding, 10 larvae): 0 | Days for pupation ([1]; 12.5 ppm): 25.2 days and 25.8 days | % wt reduction to control ([1]; 12.5 ppm, 7 days after feeding): 39.67% and 36.72% | Mean wt of survived larvae, mg ([1]; 12.5 ppm, 7 days after feeding): 28.74 (10) mg and 31.22 (10) mg | No. dead ([1]; 12.5 ppm, 7 days after feeding, 10 larvae): 0 | % wt reduction to control [1, 4]: 32.84% and 33.04% | Mean wt of survived larvae, mg [1, 4]: 111.56 (10) mg and 98.08 (10) mg | No. dead ([1]; 12.5 ppm, 21 days after feeding, 10 larvae): 0 | Days for pupation ([1]; 25 ppm): 27.25 days and 27.0 days | % wt reduction to control ([1]; 25 ppm, 7 days after feeding): 66.06% and 65.00% | Mean wt of survived larvae, mg ([1]; 25 ppm, 7 days after feeding): 16.17 (8) mg and 17.26 (6) mg | No. dead ([1]; 25 ppm, 7 days after feeding, 10 larvae): 2 and 4 | % wt reduction to control ([1]; 25 ppm, 21 days after feeding): 70.08% and 70.62% | Mean wt of survived larvae, mg ([1]; 25 ppm, 21 days after feeding): 49.70 (6) mg and 43.03 (6) mg | No. dead ([1]; 25 ppm, 21 days after feeding, 10 larvae): 4 | Days for pupation ([1]; 50 ppm in (Hepes)): 24.6 days | Mean wt of survived larvae, mg ([1]; 50 ppm in (Hepes), 7 days after feeding): 43.33 mg | No. dead ([1]; 50 ppm in (Hepes), 7 days after feeding, 10 larvae): 0 | Mean wt of survived larvae, mg ([1]; 50 ppm in (Hepes), 21 days after feeding): 137.36 mg | No. dead ([1]; 50 ppm in (Hepes), 21 days after feeding, 10 larvae): 0 | % wt reduction to control ([1]; 50 ppm, 7 days after feeding): 87.93% and 92.70% | Mean wt of survived larvae ([1]; 50 ppm, 7 days after feeding): 43.33 mg | Mean wt of survived larvae, mg ([1]; 50 ppm, 7 days after feeding): 5.75 (4) mg and 3.60 (1) mg | No. dead ([1]; 50 ppm, 7 days after feeding, 10 larvae): 6 and 8 | # surviving [1, 5]: 10 | No. dead [1, 5]: 0 | % wt reduction to control ([1]; 50 ppm, 21 days after feeding): 0% | Mean wt of survived larvae ([1]; 50 ppm, 21 days after feeding): 137.36 mg | Mean wt of survived larvae, mg ([1]; 50 ppm, 21 days after feeding): 0 mg | No. dead ([1]; 50 ppm, 21 days after feeding, 10 larvae): 10 | # surviving [1, 6]: 10 | No. dead [1, 6]: 0 | mortality at 6.25 ppm ([1]; 168 h, 6.25 ppm, 7 days after feeding): 0% | mortality at 12.5 ppm ([1]; 168 h, 12.5 ppm, 7 days after feeding): 0% | mortality at 25 ppm ([1]; 168 h, 25 ppm, 7 days after feeding): 20% | mortality at 50 ppm ([1]; 168 h, 50 ppm in (Hepes), 7 days after feeding): 0% | mortality at 6.25 ppm ([1]; 504 h, 6.25 ppm, 21 days after feeding): 0% | mortality at 12.5 ppm ([1]; 504 h, 12.5 ppm, 21 days after feeding): 0% | mortality at 25 ppm ([1]; 504 h, 25 ppm, 21 days after feeding): 40% | mortality at 50 ppm ([1]; 504 h, 50 ppm in (Hepes), 21 days after feeding): 0% | Eggs Hatched % ([2]; 2 ppm, 24 hr): 10% | Eggs Hatched % C* (% hatch, normalized to control) ([2]; 2 ppm, 24 hr): 100% | Eggs Hatched No. ([2]; 2 ppm, 24 hr): 66 | Eggs Hatched % ([2]; 2 ppm, 72 hr): 14% | Eggs Hatched % C* (% hatch, normalized to control) ([2]; 2 ppm, 72 hr): 87% | Eggs Hatched No. ([2]; 2 ppm, 72 hr): 95 | Eggs Hatched % ([2]; 2 ppm, 120 hr): 19% | Eggs Hatched % C* (% hatch, normalized to control) ([2]; 2 ppm, 120 hr): 86% | Eggs Hatched No. ([2]; 2 ppm, 120 hr): 128 | Eggs Hatched % ([2]; 2 ppm, 168 hr): 22% | Eggs Hatched % C* (% hatch, normalized to control) ([2]; 2 ppm, 168 hr): 79% | Eggs Hatched No. ([2]; 2 ppm, 168 hr): 162 | Eggs Hatched % ([2]; 5 ppm, 24 hr): 9% | Eggs Hatched % C* (% hatch, normalized to control) ([2]; 5 ppm, 24 hr): 90% | Eggs Hatched No. ([2]; 5 ppm, 24 hr): 62 | Eggs Hatched % ([2]; 5 ppm, 72 hr): 13% | Eggs Hatched % C* (% hatch, normalized to control) ([2]; 5 ppm, 72 hr): 81% | Eggs Hatched No. ([2]; 5 ppm, 72 hr): 91 | Eggs Hatched % ([2]; 5 ppm, 120 hr): 17% | Eggs Hatched % C* (% hatch, normalized to control) ([2]; 5 ppm, 120 hr): 77% | Eggs Hatched No. ([2]; 5 ppm, 120 hr): 129 | Eggs Hatched % ([2]; 5 ppm, 168 hr): 21% | Eggs Hatched % C* (% hatch, normalized to control) ([2]; 5 ppm, 168 hr): 75% | Eggs Hatched No. ([2]; 5 ppm, 168 hr): 159 | Eggs Hatched % ([2]; 10 ppm, 24 hr): 9% | Eggs Hatched % C* (% hatch, normalized to control) ([2]; 10 ppm, 24 hr): 90% | Eggs Hatched No. ([2]; 10 ppm, 24 hr): 60 | Eggs Hatched % ([2]; 10 ppm, 72 hr): 13% | Eggs Hatched % C* (% hatch, normalized to control) ([2]; 10 ppm, 72 hr): 81% | Eggs Hatched No. ([2]; 10 ppm, 72 hr): 83 | Eggs Hatched % ([2]; 10 ppm, 120 hr): 15% | Eggs Hatched % C* (% hatch, normalized to control) ([2]; 10 ppm, 120 hr): 68% | Eggs Hatched No. ([2]; 10 ppm, 120 hr): 103 | Eggs Hatched % ([2]; 10 ppm, 168 hr): 18% | Eggs Hatched % C* (% hatch, normalized to control) ([2]; 10 ppm, 168 hr): 64% | Eggs Hatched No. ([2]; 10 ppm, 168 hr): 136 | Eggs Hatched % ([2]; 20 ppm, 24 hr): 8% | Eggs Hatched % C* (% hatch, normalized to control) ([2]; 20 ppm, 24 hr): 80% | Eggs Hatched No. ([2]; 20 ppm, 24 hr): 51 | Eggs Hatched % ([2]; 20 ppm, 72 hr): 11% | Eggs Hatched % C* (% hatch, normalized to control) ([2]; 20 ppm, 72 hr): 69% | Eggs Hatched No. ([2]; 20 ppm, 72 hr): 64 | Eggs Hatched % ([2]; 20 ppm, 120 hr): 12% | Eggs Hatched % C* (% hatch, normalized to control) ([2]; 20 ppm, 120 hr): 55% | Eggs Hatched No. ([2]; 20 ppm, 120 hr): 79 | Eggs Hatched % ([2]; 20 ppm, 168 hr): 15% | Eggs Hatched % C* (% hatch, normalized to control) ([2]; 20 ppm, 168 hr): 54% | Eggs Hatched No. ([2]; 20 ppm, 168 hr): 99 | Eggs Hatched % ([2]; 40 ppm, 24 hr): 7% | Eggs Hatched % C* (% hatch, normalized to control) ([2]; 40 ppm, 24 hr): 70% | Eggs Hatched No. ([2]; 40 ppm, 24 hr): 48 | Eggs Hatched % ([2]; 40 ppm, 72 hr): 10% | Eggs Hatched % C* (% hatch, normalized to control) ([2]; 40 ppm, 72 hr): 62% | Eggs Hatched No. ([2]; 40 ppm, 72 hr): 55 | Eggs Hatched % ([2]; 40 ppm, 120 hr): 10% | Eggs Hatched % C* (% hatch, normalized to control) ([2]; 40 ppm, 120 hr): 45% | Eggs Hatched No. ([2]; 40 ppm, 120 hr): 63 | Eggs Hatched % ([2]; 40 ppm, 168 hr): 11% | Eggs Hatched % C* (% hatch, normalized to control) ([2]; 40 ppm, 168 hr): 39% | Eggs Hatched No. ([2]; 40 ppm, 168 hr): 75
